Columns and labels:
Type in all cases: biochemical
BTK = molecular target: T1, BTK (Homo sapiens, UniProt Q06187); assay: Btk in vitro inhibitory activity (TR-FRET, mobility shift or radiometric filter binding kinase assay); conditions: determined using one of the methods outlined in Example 47a, 47b, and 47c
T1 construct: purified from insect cells as a full-length construct containing a N-terminal 6×-His tag; His6 (N); made in house; host or cells: insect cells (baculovirus, Sf21)
Procedure: (§1) Btk kinase activity is determined using a time-resolved fluorescence resonance energy transfer (TR-FRET) methodology. Measurements are performed in a reaction volume of 50 μL using 96-well assay plates. […] The reaction is quenched by the addition of 1.2 equivalents of EDTA (relative to divalent cation) in 25 μL of 1× Lance buffer (Perkin-Elmer). Streptavidin-APC (Perkin-Elmer) and Eu-labeled p-Tyr100 antibody (Perkin-Elmer) in 1× Lance buffer are added in a 25 μL volume to give final concentrations of 100 nM and 2.5 nM, respectively, and the mixture is allowed to incubate for one hour. The TR-FRET signal is measured on a multimode plate reader with an excitation wavelength (λEx) of 330 nm and detection wavelengths (λEm) of 615 and 665 nm. Activity is determined by the ratio of the fluorescence at 665 nm to that at 615 nm. For each compound, enzyme activity is measured at various concentrations of compound. Negative control reactions are performed in the absence of inhibitor in replicates of six, and two no-enzyme controls are used to determine baseline fluorescence levels. Inhibition constants, Ki(app), ware obtained using the program BatchKi (Kuzmic et al. (2000), Anal. Biochem. 286:45-50). IC50s are obtained according to the equation: IC50={Ki(app)/(1+[ATP]/Km^ATP)}+[E]total/2;
(§2) For all kinases, [ATP]=Km^ATP, [Btk]total=0.5 nM and [Lck]total=6 nM.
Kinase activity is measured in vitro using electrophoretic mobility shift assay. The kinase reactions are assembled in a total volume of 25 μL in 384 well plates. […] The reaction is incubated for one hour and is quenched by the addition of 45 μL of termination buffer (100 mM HEPES, pH7.5, 0.01% Triton X-100, 30 mM EDTA). The terminated reactions are analyzed using 12 channel LabChip® 3000 microfluidic detection instrument (Caliper Life Sciences). The enzymatic phosphorylation of the peptide results in a change in net charge, enabling electrophoretic separation of product from substrate peptide. As substrate and product peptides are separated, two peaks of fluorescence are observed. Change in the relative fluorescence intensity of the substrate and product peaks is the parameter measured, reflecting enzyme activity. In the presence of an inhibitor, the ratio between product and substrate is altered: the signal of the product decreases, while the signal of the substrate increases.
Activity in each sample is determined as the product to sum ratio (PSR): P/(S+P), where P is the peak height of the product peptide and S is the peak height of the substrate peptide. For each compound, enzyme activity is measured at various concentrations (12 concentrations of compound spaced by 3× dilution intervals). Negative control samples (0%-inhibition in the absence of inhibitor) and positive control samples (100%-inhibition, in the presence of 20 mM EDTA) are assembled in replicates of four and are used to calculate %-inhibition values for each inhibitor at each concentration. Percent inhibition (Pinh) is determined using following equation: Pinh=(PSR0%−PSRinh)/(PSR0%−PSR100%)*100,
where PSRmh is the product sum ratio in the presence of inhibitor, PSR0% is the average product sum ration in the absence of inhibitor and PSR100% is the average product sum ratio in 100%-inhibition control samples;
The IC50 values of inhibitors are determined by 4 parameter sigmoidal dose-response model fitting of the inhibition curves (Pinh versus inhibitor concentration) using XLfit 4 software.
Human Btk kinase (Genbank accession # NP_000052) was purified from insect cells as a full-length construct containing a N-terminal 6×-His tag. Btk kinase activity was determined using a radiometric filter binding assay. Measurements are performed in a low μL reaction volume 384-well assay plates. […]

Lck = Lck (Homo sapiens, UniProt P06239); assay: Lck kinase inhibition (in vitro kinase assay)
Lck, sequence (P06239 whole entry, species assumed): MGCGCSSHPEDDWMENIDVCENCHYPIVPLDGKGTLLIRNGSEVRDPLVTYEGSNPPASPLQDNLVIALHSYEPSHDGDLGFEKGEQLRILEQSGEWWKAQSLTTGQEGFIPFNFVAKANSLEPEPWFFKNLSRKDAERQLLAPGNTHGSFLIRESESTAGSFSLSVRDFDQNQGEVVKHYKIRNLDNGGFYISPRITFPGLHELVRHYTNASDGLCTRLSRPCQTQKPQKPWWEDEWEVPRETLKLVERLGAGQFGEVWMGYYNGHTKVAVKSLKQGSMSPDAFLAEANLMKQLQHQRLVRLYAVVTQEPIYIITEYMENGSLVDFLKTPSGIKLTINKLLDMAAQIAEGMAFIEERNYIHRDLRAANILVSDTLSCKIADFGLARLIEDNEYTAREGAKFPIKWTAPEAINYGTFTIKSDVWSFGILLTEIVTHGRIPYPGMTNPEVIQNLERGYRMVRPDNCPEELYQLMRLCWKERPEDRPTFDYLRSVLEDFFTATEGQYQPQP
Procedure: as §1, §2

EGFR = EGFR (Homo sapiens, UniProt P00533); assay: EGFR kinase inhibition (in vitro kinase assay)
EGFR, sequence (P00533 25-1210, species assumed): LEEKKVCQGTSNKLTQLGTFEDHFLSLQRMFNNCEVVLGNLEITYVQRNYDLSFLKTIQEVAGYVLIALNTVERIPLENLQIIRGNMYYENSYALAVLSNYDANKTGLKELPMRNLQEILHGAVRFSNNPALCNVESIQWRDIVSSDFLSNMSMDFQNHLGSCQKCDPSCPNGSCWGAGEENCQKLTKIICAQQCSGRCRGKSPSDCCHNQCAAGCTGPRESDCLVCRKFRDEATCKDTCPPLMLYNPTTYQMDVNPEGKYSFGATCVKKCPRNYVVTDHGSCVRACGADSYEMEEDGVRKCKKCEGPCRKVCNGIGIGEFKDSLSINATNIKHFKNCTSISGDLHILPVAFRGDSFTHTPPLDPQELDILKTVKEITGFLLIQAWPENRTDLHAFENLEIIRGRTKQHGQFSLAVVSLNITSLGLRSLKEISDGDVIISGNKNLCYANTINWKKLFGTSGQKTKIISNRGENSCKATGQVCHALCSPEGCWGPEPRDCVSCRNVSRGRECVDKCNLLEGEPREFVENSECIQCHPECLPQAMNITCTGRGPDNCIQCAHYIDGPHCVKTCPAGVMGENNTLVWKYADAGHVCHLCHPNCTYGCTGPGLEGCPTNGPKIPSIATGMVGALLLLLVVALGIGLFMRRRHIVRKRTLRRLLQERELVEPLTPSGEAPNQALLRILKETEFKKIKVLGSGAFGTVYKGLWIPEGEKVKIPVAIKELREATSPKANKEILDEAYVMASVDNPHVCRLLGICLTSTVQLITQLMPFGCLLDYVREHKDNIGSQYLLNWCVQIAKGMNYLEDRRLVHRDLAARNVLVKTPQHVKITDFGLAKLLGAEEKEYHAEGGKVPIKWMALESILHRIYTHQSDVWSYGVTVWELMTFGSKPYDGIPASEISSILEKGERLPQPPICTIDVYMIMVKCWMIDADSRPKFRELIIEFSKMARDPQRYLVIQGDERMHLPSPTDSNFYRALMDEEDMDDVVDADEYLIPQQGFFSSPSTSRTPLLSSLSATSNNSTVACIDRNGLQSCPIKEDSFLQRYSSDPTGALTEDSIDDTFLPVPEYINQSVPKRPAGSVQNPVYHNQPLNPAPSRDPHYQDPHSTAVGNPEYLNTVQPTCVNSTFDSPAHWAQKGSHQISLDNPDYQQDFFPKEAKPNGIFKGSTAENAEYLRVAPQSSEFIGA

T1 sequence (Q06187 whole entry): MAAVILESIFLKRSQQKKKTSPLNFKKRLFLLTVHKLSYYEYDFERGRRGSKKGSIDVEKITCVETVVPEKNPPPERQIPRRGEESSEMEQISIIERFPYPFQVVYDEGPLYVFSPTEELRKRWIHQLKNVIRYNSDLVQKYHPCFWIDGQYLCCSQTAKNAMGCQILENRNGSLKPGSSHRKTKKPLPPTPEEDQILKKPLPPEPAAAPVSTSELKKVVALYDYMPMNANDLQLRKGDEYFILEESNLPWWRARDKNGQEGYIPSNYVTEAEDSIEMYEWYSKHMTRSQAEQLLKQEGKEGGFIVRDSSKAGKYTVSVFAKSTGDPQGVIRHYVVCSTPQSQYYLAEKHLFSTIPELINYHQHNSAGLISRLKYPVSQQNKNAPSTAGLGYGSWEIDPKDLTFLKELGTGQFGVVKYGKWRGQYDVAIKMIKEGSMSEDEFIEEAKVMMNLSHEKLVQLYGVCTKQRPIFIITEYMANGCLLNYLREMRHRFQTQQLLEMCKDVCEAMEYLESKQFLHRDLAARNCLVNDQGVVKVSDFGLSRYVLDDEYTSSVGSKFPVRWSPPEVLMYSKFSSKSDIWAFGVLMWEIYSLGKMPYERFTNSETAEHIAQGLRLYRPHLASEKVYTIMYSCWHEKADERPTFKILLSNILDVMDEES

SMILES | IC50 (BTK) | IC50 (Lck) | IC50 (EGFR)
COc1cc(-c2nn([C@@H]3CCN(C(=O)/C=C/CN(C)C4CC4)C3)c3ncnc(N)c23)ccc1C(=O)Nc1cc(C)ccn1 [Example 5, (R,E)-4-(4-amino-1-(1-(4-(cyclopropyl(methyl)amino)but-2-enoyl)pyrrolidin-3-yl)-1H-pyrazolo[3,4-d]pyrimidin-3-yl)-2-methoxy-N-(4-methylpyridin-2-yl)benzamide] | < 100 nM | 1000 to 10000 nM | 1000 to 10000 nM
Cc1cnc(NC(=O)c2ccc(-c3nn([C@@H]4CCN(C(=O)/C=C/CN(C)C5CC5)C4)c4ncnc(N)c34)cc2)s1 [Example 6, (R,E)-4-(4-amino-1-(1-(4-(cyclopropyl(methyl)amino)but-2-enoyl)pyrrolidin-3-yl)-1H-pyrazolo[3,4-d]pyrimidin-3-yl)-N-(5-methylthiazol-2-yl)benzamide] | < 100 nM | 100 to 1000 nM | 1000 to 10000 nM
CC(C)c1cnc(NC(=O)c2ccc(-c3nn([C@@H]4CCN(C(=O)/C=C/CN(C)C5CC5)C4)c4ncnc(N)c34)cc2)s1 [Example 8, (R,E)-4-(4-amino-1-(1-(4-(cyclopropyl(methyl)amino)but-2-enoyl)pyrrolidin-3-yl)-1H-pyrazolo[3,4-d]pyrimidin-3-yl)-N-(5-isopropylthiazol-2-yl)benzamide] | < 100 nM | < 100 nM | 100 to 1000 nM
CCc1cnc(NC(=O)c2ccc(-c3nn([C@@H]4CCN(C(=O)/C=C/CN(C)C5CC5)C4)c4ncnc(N)c34)cc2)s1 [Example 9, (R,E)-4-(4-amino-1-(1-(4-(cyclopropyl(methyl)amino)but-2-enoyl)pyrrolidin-3-yl)-1H-pyrazolo[3,4-d]pyrimidin-3-yl)-N-(5-ethylthiazol-2-yl)benzamide] | < 100 nM | < 100 nM | 100 to 1000 nM
CCCc1cnc(NC(=O)c2ccc(-c3nn([C@@H]4CCN(C(=O)/C=C/CN(C)C5CC5)C4)c4ncnc(N)c34)cc2)s1 [Example 10, (R,E)-4-(4-amino-1-(1-(4-(cyclopropyl(methyl)amino)but-2-enoyl)pyrrolidin-3-yl)-1H-pyrazolo[3,4-d]pyrimidin-3-yl)-N-(5-propylthiazol-2-yl)benzamide] | < 1 nM | < 100 nM | 100 to 1000 nM
CN(C/C=C/C(=O)N1CC[C@@H](n2nc(-c3ccc(C(=O)Nc4ncc(C(F)(F)F)s4)cc3)c3c(N)ncnc32)C1)C1CC1 [Example 11, (R,E)-4-(4-amino-1-(1-(4-(cyclopropyl(methyl)amino)but-2-enoyl)pyrrolidin-3-yl)-1H-pyrazolo[3,4-d]pyrimidin-3-yl)-N-(5-(trifluoromethyl)thiazol-2-yl)benzamide] | < 100 nM | < 100 nM | 100 to 1000 nM
CN(C/C=C/C(=O)N1CC[C@@H](n2nc(-c3ccc(C(=O)Nc4ncco4)cc3)c3c(N)ncnc32)C1)C1CC1 [Example 14, (R,E)-4-(4-amino-1-(1-(4-(cyclopropyl(methyl)amino)but-2-enoyl)pyrrolidin-3-yl)-1H-pyrazolo[3,4-d]pyrimidin-3-yl)-N-(oxazol-2-yl)benzamide] | < 100 nM | > 10000 nM | > 10000 nM
CN(C/C=C/C(=O)N1CC[C@@H](n2nc(-c3ccc(C(=O)Nc4ccccn4)cc3)c3c(N)ncnc32)C1)C1CC1 [Example 15, (R,E)-4-(4-amino-1-(1-(4-(cyclopropyl(methyl)amino)but-2-enoyl)pyrrolidin-3-yl)-1H-pyrazolo[3,4-d]pyrimidin-3-yl)-N-(pyridin-2-yl)benzamide] | < 100 nM | 1000 to 10000 nM | 100 to 1000 nM
CN(C/C=C/C(=O)N1CC[C@@H](n2nc(-c3ccc(C(=O)Nc4cc(C#N)ccn4)cc3)c3c(N)ncnc32)C1)C1CC1 [Example 16, (R,E)-4-(4-amino-1-(1-(4-(cyclopropyl(methyl)amino)but-2-enoyl)pyrrolidin-3-yl)-1H-pyrazolo[3,4-d]pyrimidin-3-yl)-N-(4-cyanopyridin-2-yl)benzamide] | < 100 nM | 100 to 1000 nM | 1000 to 10000 nM
CN(C/C=C/C(=O)N1CC[C@@H](n2nc(-c3ccc(C(=O)Nc4cc(C5CC5)ccn4)cc3)c3c(N)ncnc32)C1)C1CC1 [Example 17, (R,E)-4-(4-amino-1-(1-(4-(cyclopropyl(methyl)amino)but-2-enoyl)pyrrolidin-3-yl)-1H-pyrazolo[3,4-d]pyrimidin-3-yl)-N-(4-cyclopropylpyridin-2-yl)benzamide] | < 1 nM | 100 to 1000 nM | 1000 to 10000 nM
CC(C)c1ccnc(NC(=O)c2ccc(-c3nn([C@@H]4CCN(C(=O)/C=C/CN(C)C5CC5)C4)c4ncnc(N)c34)cc2)c1 [Example 18, (R,E)-4-(4-amino-1-(1-(4-(cyclopropyl(methyl)amino)but-2-enoyl)pyrrolidin-3-yl)-1H-pyrazolo[3,4-d]pyrimidin-3-yl)-N-(4-isopropylpyridin-2-yl)benzamide] | < 1 nM | 100 to 1000 nM | 1000 to 10000 nM
CN(C)C/C=C/C(=O)N1CC[C@@H](n2nc(-c3ccc(C(=O)Nc4ccccn4)cc3)c3c(N)ncnc32)C1 [Example 30, (R,E)-4-(4-amino-1-(1-(4-(dimethylamino)but-2-enoyl)pyrrolidin-3-yl)-1H-pyrazolo[3,4-d]pyrimidin-3-yl)-N-(pyridin-2-yl)benzamide] | < 1 nM | 100 to 1000 nM | 100 to 1000 nM
CC(C)c1ccnc(NC(=O)c2ccc(-c3nn([C@@H]4CCN(C(=O)/C=C/CN(C)C)C4)c4ncnc(N)c34)cc2)c1 [Example 31, (R,E)-4-(4-amino-1-(1-(4-(dimethylamino)but-2-enoyl)pyrrolidin-3-yl)-1H-pyrazolo[3,4-d]pyrimidin-3-yl)-N-(4-isopropylpyridin-2-yl)benzamide] | < 1 nM | < 100 nM | 100 to 1000 nM
CN(C)C/C=C/C(=O)N1CC[C@@H](n2nc(-c3ccc(C(=O)Nc4cc(C#N)ccn4)cc3)c3c(N)ncnc32)C1 [Example 32, (R,E)-4-(4-amino-1-(1-(4-(dimethylamino)but-2-enoyl)pyrrolidin-3-yl)-1H-pyrazolo[3,4-d]pyrimidin-3-yl)-N-(4-cyanopyridin-2-yl)benzamide] | < 1 nM | 100 to 1000 nM | 100 to 1000 nM

From patent US9624224B2, “Inhibitors of Bruton's tyrosine kinase” (Pharmacyclics LLC, priority 2013, dated 2017)
